Assay: Solubility of paclitaxel and docetaxel in triglycerides
Format: physicochemical
Conditions: no recrystallization at room temperature; for Solubility in Labrafac CC: triglyceride Labrafac CC, C8 content 56.7%; for Solubility in Miglyol 810 N: triglyceride Miglyol 810 N, C8 content 70.4%; for Solubility in Tricaprylin: triglyceride Tricaprylin, C8 >99%
Procedure: A solution of docetaxel or paclitaxel in triglycerides, which will constitute the inner core of the lipid nanocapsules, is prepared by dissolving the drug into the triglyceride at 75° C. The amount of drug is adjusted in order to obtain solutions that will not recrystallize upon cooling to room temperature.

Solubility in Labrafac CC	Solubility in Miglyol 810 N	Solubility in Tricaprylin	Compound
2 % w/w	3.9 % w/w	7 % w/w	CC(=O)O[C@@]12CO[C@@H]1C[C@H](O)[C@@]1(C)C(=O)[C@H](O)C3=C(C)[C@@H](OC(=O)[C@H](O)[C@@H](NC(=O)OC(C)(C)C)c4ccccc4)C[C@@](O)([C@@H](OC(=O)c4ccccc4)[C@H]21)C3(C)C [Docetaxel, docetaxel]
1.6 % w/w	2.7 % w/w	6 % w/w	CC(=O)O[C@H]1C(=O)[C@@]2(C)[C@H]([C@H](OC(=O)c3ccccc3)[C@]3(O)C[C@H](OC(=O)[C@H](O)[C@@H](NC(=O)c4ccccc4)c4ccccc4)C(C)=C1C3(C)C)[C@]1(OC(C)=O)CO[C@@H]1C[C@@H]2O [Paclitaxel, paclitaxel]
